Measurements published in US4551472A, “Unsymmetrical bis-carbamate compounds” (priority 1984, dated 1985).

What was measured:
Bean = test: Phytotoxicity Test, bean; settings: 2500 ppm spray, ten days
Method: (§1) Experiments were also conducted to determine the phytotoxicity of representative compounds with respect to healthy fresh plants. […] The test plants were sprayed in accordance with the procedure described above for the Mite Foliage Spray Test so as to deliver approximately 100 milliliters of test solution to the leaves of each plant tested. The sprayed plants and controls were set aside for approximately one hour to allow the foliage to dry and were then placed in the greenhouse. After ten days the plants were visually inspected to determine the extent of foliage injury. A rating of 1 indicates no perceptible injury; 5 indicates the plant was dead and ratings of 2, 3 and 4 indicate intermediate degrees of injury based upon the number and extent to which leaves were injured.

Soy = test: Phytotoxicity Test, soy; settings: 2500 ppm spray, ten days
[1] = system: root-knot nematode, Meloidogyne incognita var. acrita; test: Nematocide Test; note: key: 1: severe galling, equal to untreated plants; 2: moderate galling; 3: light galling; 4: very light galling; 5: no galling, perfect control; type: in vivo; settings: 3.33 m.g. per jar; cucumber, approximately 3 weeks
Method: The test organism used was the infective migratory larvae of the root-knot nematode, Meloidogyne incognita var. acrita, reared in the greenhouse on roots of cucumber plants. Infected plants were removed from the culture, and the roots are chopped very finely. A small amount of this inoculum was added to a pint jar containing approximately 180 cc. of soil. The jars were capped and incubated for one week at room temperature. During this period eggs of the nematode were hatched, and the larval forms migrated into the soil.
Ten ml. of the test formulation were added to each of the two jars for each dosage tested. Following the addition of chemical, the jars were capped, and the contents thoroughly mixed on a ball mill for 5 minutes.
The test compounds were formulated by a standard procedure of solution in acetone addition of an emulsifier, and dilution with water. Primary screening tests were conducted at 3.33 m.g. of the test compound per jar.
The jars were left capped at room temperature for a period of 48 hours, and the contents then transferred to 3 inch pots. Subsequently, the pots were seeded to cucumber as an indicator crop and placed in the greenhouse where they were cared for in the normal fashion for approximately 3 weeks.
The cucumber plants were then taken from the pots, the soil removed from the roots; and the amount of galling visually rated.
In the test for activity against nematodes (nem) activity was rated as follows: […]

Cotton = test: Phytotoxicity Test, cotton; settings: 2500 ppm spray, ten days
Method: as §1

Corn = test: Phytotoxicity Test, corn; settings: 2500 ppm spray, ten days
Method: as §1

Tom = test: Phytotoxicity Test, tomato; settings: 2500 ppm spray, ten days
Method: as §1

[2] = Mammalian Toxicity, peroral toxicity to rat; type: in vivo; settings: in vivo, po, read-out: A.O. Rat LD50
Method: Certain compounds were also evaluated to determine their peroral toxicity to mammals by conventional methods. The representative animal selected for this experiment was the rat.

Row | Structure (SMILES) | Phytotoxicity: Bean (Bean) | Phytotoxicity: Soy (Soy) | Biological Activity: Nem (nematode, galling rating) [1] | Phytotoxicity: Cotton (Cotton) | Phytotoxicity: Corn (Corn) | Phytotoxicity: Tom (Tom) | LD50 [2] [mg/kg]
1 | CSC(C)=NOC(=O)N(C)SN(C)C(=O)Oc1cccc2c1OC(C)(C)C2 [Example V, N-[1-Methylthioacetaldehyde O-(N-methylcarbamoyl)oxime]N-[2,2-dimethyl-2,3-dihydro-7-(N-methylcarbamoyloxy)benzofuran]sulfide] | 2 | 2 | 5 | 2 | 1 | 2 | 15.9
2 | CSC(C)(C)C=NOC(=O)N(C)SN(C)C(=O)Oc1cccc2ccccc12 [Example VI, N-[2-Methylthio-2-methylpropionaldehyde O-(N-methylcarbamoyl)oxime]N-[1-(N-methylcarbamoyloxy)naphthalene]sulfide] | 1 | 1 | 4 | 1 | 1 | 1 | 2.97
3 | CSC(C)=NOC(=O)N(C)SN(C)C(=O)Oc1ccc(C(C)(C)C)cc1 [IX, N-[1-Methylthioacetaldehyde O-(N-methylcarbamoyl)oxime]N-[4-tert-butylphenyl-(N-methylcarbamoyloxy)]sulfide] | 1 | 1 | 3 | 1 | 1 | 1 | 226
4 | CSC(C)=NOC(=O)N(C)SN(C)C(=O)Oc1cccc2ccccc12 [VII, N-[1-Methylthioacetaldehyde O-(N-methylcarbamoyl)oxime]N-[1-naphthylmethylcarbamate]sulfide] | 1 | 2 | 4 | 2 | 1 | 1 | 160
5 | CSC(C)=NOC(=O)N(C)SN(C)C(=O)Oc1ccc(C(C)C)cc1 [VIII, N-[1-Methylthioacetaldehyde O-(N-methylcarbamoyl)oxime]N-[4-isopropylphenyl-(N-methylcarbamoyloxy)]sulfide] | 1 | 1 | 4 | 1 | 1 | 1 | 160
6 | CSC(C)=NOC(=O)N(C)SN(C)C(=O)Oc1ccc([N+](=O)[O-])cc1 [XII, N-[1-Methylthioacetaldehyde O-(N-methylcarbamoyl)oxime]N-[1-(N-methylcarbamoyloxy)-4-nitrobenzene]sulfide] | 1 | 1 | 1 | 1 | 1 | 1 | 453
7 | CCOC(=O)C(=NOC(=O)N(C)SN(C)C(=O)ON=C(C)SC)SC [XIII, N-[1-Methylthioacetaldehyde O-(N-methylcarbamoyl)oxime]N-[1-methylthio-1-ethoxycarbonylformaldehyde O-(N-methylcarbamoyl)oxime]sulfide] | 1 | 2 | 3 | 1 | 1 | 1 | 160
8 | CSC(C)=NOC(=O)N(C)SN(C)C(=O)Oc1cccc2c1CCCC2 [XIV, N-[1-Methylthioacetaldehyde O-(N-methylcarbamoyl)oxime]N-[1-(N-methylcarbamoyloxy)-5,6,7,8-tetrahydronaphthalene]sulfide] | 1 | 1 | 4 | 1 | 1 | 1 | 285
9 | CSC(C)=NOC(=O)N(C)SN(C)C(=O)Oc1ccc(SC)c(C)c1 [XV, N-[1-Methylthioacetaldehyde O-(N-methylcarbamoyl)oxime]N-[O-(N-methylcarbamoyl)-4-methylthio-3-methylphenyl]sulfide] | 1 | 1 | 4 | 1 | 1 | 1 | 40
10 | COC(=O)Nc1ccc(OC(=O)N(C)SN(C)C(=O)ON=C(C)SC)cc1C(C)C [XVI, N-[1-Methylthioacetaldehyde O-(N-methylcarbamoyl)oxime]N-[4-methoxycarbonylamino-(N-methylcarbamate)-3-isopropylphenyl]sulfide] | 1 | 1 | 4 | 1 | 1 | 1 | 28.3
11 | CSC(C)=NOC(=O)N(C)SN(C)C(=O)Oc1cc(C)c(C)c(C)c1 [XVIII, N-[1-Methylthioacetaldehyde O-(N-methylcarbamoyl)oxime]N-[3,4,5-trimethylphenyl-(N-methylcarbamoyloxy)]sulfide] | 1 | 1 | 4 | 1 | 1 | 1 | 95.1
12 | CN(SN(C)C(=O)Oc1cccc2ccccc12)C(=O)ON=C1CSCCS1 [XXII, N-[2-O-(N-methylcarbamoyl)oximino-1,4-dithiane]N-[1-naphthyl-(N-methylcarbamoyloxy)]sulfide] | 1 | 2 | 4 | 1 | 1 | 1 | 453
13 | CN(SN(C)C(=O)Oc1cccc2c1OC(C)(C)C2)C(=O)ON=C1CSCCS1 [XXIV, N-[2-O-(N-methylcarbamoyl)oximino-1,4-dithiane]N-[2,3-dihydro-2,2-dimethyl-7-(N-methylcarbamoyloxy)benzofuran]sulfide] | 1 | 2 | 5 | 2 | 1 | 1 | 20
14 | C#CCOc1ccccc1OC(=O)N(C)SN(C)C(=O)ON=C(C)SC [XXXIX] | 1 | 2 | 3 | 2 | 1 | 1 | 160
15 | CCCCCCCCCc1ccc(OC(=O)N(C)SN(C)C(=O)ON=C(C)SC)cc1 [XXXI] | 1 | 1 | 5 | 1 | 1 | 1 | > 640
16 | CSC(C)=NOC(=O)N(C)SN(C)C(=O)Oc1ccccc1C1SCCS1 [XXXVI] | 1 | 1 | 4 | 1 | 1 | 1 | 50.4
17 | CSC(C)=NOC(=O)N(C)SN(C)C(=O)ON=C(C)SCCC#N [X] | 1 | 1 | 1 | 2 | 1 | 1 | 67.3
